Assay results as given in paper PMC9937538 (Journal of Medicinal Chemistry, 2022).
In brackets after ≈: the same amount, converted by molar mass. Several values for one entry are separate records, joined by “and”; a condition that tells them apart may be missing. Equal entries are not always repeated.

Key:
[1] = Solubility in phosphate-buffered saline (LC-MS/MS); assay type: physicochemical; settings: pH 7.4, read-out: soluble concentration
Protocol: The solubility of compound 12 was determined in phosphate-buffered saline at a pH of 7.4 through a suitable liquid chromatography and tandem mass spectrometry (LC-MS/MS) method, as described in the Experimental Section.

hCA IX = hCA IX (Homo sapiens, UniProt Q16790); experiment: CA inhibition, stopped-flow CO2 hydration assay; settings: read-out: Ki CA IX; stopped-flow technique, mean from three assays
Protocol: An applied photophysics stopped-flow instrument was used for assaying the CA-catalyzed CO2 hydration activity.[37]
The uncatalyzed rates were determined in the same manner and subtracted from the total observed rates. Stock solutions of the inhibitor (0.1 mM) were prepared in distilled–deionized water, and dilutions up to 0.01 nM were done thereafter with the assay buffer. Inhibitor and enzyme solutions were preincubated together for 15 min at room temperature prior to the assay to allow for the formation of the E–I complex. The inhibition constants were obtained by nonlinear least-squares methods using PRISM 3 and the Cheng–Prusoff equation, as reported earlier, and represent the mean from at least three different determinations. All CA isoforms were recombinant proteins obtained in-house, as reported earlier.[44]−[46]

[2] = target: T1, DPP IV activity expressed by nondifferentiated Caco-2 cells (Homo sapiens, UniProt P27487); assay type: cell-based
T1 construct: Caco-2 cells that express high levels of DPP IV on their cellular membranes; endogenous in cells; host or cells: Caco-2 cells (INSERM, Paris)
Protocol: The data are represented as the means ± standard deviation (SD) of three independent experiments, performed in triplicate. Statistical analysis was performed by one-way analysis of variance (ANOVA), followed by Tukey’s post hoc test. ns: not significant; (**), p < 0.01, (****) p < 0.0001; C: control cells.
A total of 3 × 10^4 Caco-2 cells/well were seeded in black 96-well plates with clear bottoms.

human cloned α1a-AR = target: T2, human cloned α1a-AR (Homo sapiens, UniProt P35348); experiment: α1a-AR binding assay ([3H]prazosin displacement); settings: human cloned α1a-AR expressed in HEK293 cells
T2 construct: expressed in transfected cells
T2 sequence (P35348 1-466): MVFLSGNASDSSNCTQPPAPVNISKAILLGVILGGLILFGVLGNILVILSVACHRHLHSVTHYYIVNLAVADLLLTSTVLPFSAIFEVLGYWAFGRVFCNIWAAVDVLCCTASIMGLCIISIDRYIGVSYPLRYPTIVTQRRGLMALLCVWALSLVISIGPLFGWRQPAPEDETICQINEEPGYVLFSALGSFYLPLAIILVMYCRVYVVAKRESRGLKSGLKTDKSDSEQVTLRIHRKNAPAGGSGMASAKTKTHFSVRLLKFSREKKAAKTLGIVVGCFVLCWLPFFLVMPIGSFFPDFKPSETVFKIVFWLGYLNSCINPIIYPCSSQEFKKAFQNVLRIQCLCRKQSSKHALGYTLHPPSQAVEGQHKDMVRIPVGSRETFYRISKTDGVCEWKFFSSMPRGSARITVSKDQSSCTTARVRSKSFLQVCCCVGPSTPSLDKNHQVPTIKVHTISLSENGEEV
From the text: Since WB-4101 is a potent α1 antagonist, this adrenoreceptor subtype was chosen to assess the loss of adrenergic affinity.
Figure S3. […] Curves […]
from single experiments were fitted using the standard four parameter logistic equation and represent the mean ± S.E.M. of 4 observations, 2 experi-ments. X-axis: Log concentrations of competitive test compounds. Y-axis: normalized [3H]prazosin Bound/Total bound.
In the table are reported the affinity constants, expressed as pKi (-log Ki), of compounds 11, 12 and WB-4101 for human cloned α1a-AR expressed in HEK293 cells. The values represent the arithmetic mean ± S.E.M. of 4 observations, 2 experiments.
ND, not determinable; NA, not available.
Note: data generated from binding assays were analyzed using Prism 5.02 (GraphPad Software Inc., San Diego, CA) and were fitted to a parametric function to derive best estimates of the IC50 and slope factor (nH); IC50 values were then converted to binding constant Ki according to Cheng-Prus- […]
The details on the α1a-AR binding assay have been described before2.
(1 picture or pasted object on this page, not shown here)

Caco-2 cells [3] = experiment: MTT assay; assay type: cell-based, human; settings: 10^–8 to 10^–5 M, 48 h
Protocol: (§1) The cytotoxicity of the active compound 12 was determined. Cell viability was assessed by the quantitative colorimetric method of the MTT reduction on Caco-2 and HepG2 cells.
(§2) A total of 3 × 10^4 Caco-2 and HepG2 cells/well were seeded in 96-well plates and treated with 11 and 12 from 10^–8 to 10^–5 M or vehicle (H2O) in complete growth media for 48 h at 37 °C under a 5% CO2 atmosphere. Subsequently, the treatment solvent was aspirated and 100 μL/well of 3-(4,5-dimethylthiazol-2-yl)-2,5-diphenyltetrazolium bromide (MTT) filtered solution was added. After 2 h of incubation at 37 °C under a 5% CO2 atmosphere, 0.5 mg/mL solution was aspirated and 100 μL/well of the lysis buffer (8 mM HCl + 0.5% NP-40 in DMSO) was added. After 10 min of slow shaking, the absorbance at 575 nm was read on a Synergy H1 fluorescence plate reader (Biotek, Bad Friedrichshall, Germany).

HepG2 cells = experiment: MTT assay; assay type: cell-based, human; settings: 10^–8 to 10^–5 M, 48 h
Protocol: as §1, §2

Caco-2 cells [4] = experiment: Uptake by Caco-2 cells (intrinsic fluorescence, normalized with Janus Green); assay type: in vitro ADME, human; settings: 1.0 μM
Protocol: The ability of compound 12 to be uptaken by Caco-2 cells was assessed, exploiting its natural behavior to emit fluorescence at 313 nm after excitation at 250 nm using a fluorescent plate reader. […] Fluorescence signals emitted at 313 nm by the compound localized at the intracellular level as a function of time have been normalized for the total amount of cells stained using Janus Green (OD 595 nm); therefore, the relative fluorescence unit (RFU) 313/595 nm after 15, 30, and 60 min of incubation was calculated. The RFU 313/595 nm of the blank samples, which represents the cellular background, was subtracted from each normalized fluorescence signal. […] In particular, compound 12 is absorbed by Caco-2 cells up to 2874 ± 383.1, 4562 ± 993.2, and 6250 ± 1163RFU after 15, 30, and 60 min, respectively (Figure 7).

[5] = target: T3, purified recombinant human DPP IV (Homo sapiens, UniProt P27487); experiment: In vitro DPP IV activity assay (fluorogenic Gly-Pro-AMC substrate); assay type: biochemical; settings: mean from three different assays
T3 construct: purchased Cayman Chemicals (Michigan)
Protocol: The DPP IV inhibition activities of the entire sets of compounds were carried out on purified recombinant human DPP IV using conditions previously optimized.[35]
Four independent in vitro experiments were carried out, and each of those was performed in triplicate in a white half-volume 96-well solid plate. […] Afterward, the samples were mixed and 50 μL was transferred to each plate well. Each reaction was started by adding 50 μL of the substrate solution (200 μM H-Gly-Pro-7-amido-4-methylcoumarin (AMC)) to each well and incubated at 37 °C for 30 min. […] The DPP IV enzyme and the substrate solution were provided by Cayman Chemicals (Michigan).

[6] = Hepatic microsome stability; assay type: in vitro ADME; settings: after 120 min of incubation
Protocol: To predict the metabolic fate as well as the susceptibility of compound 12 to phase I metabolism following the in vivo administration, it was incubated with human (Sekisui XenoTech, LLC), CD-1 mouse (BioIVT), and Sprague-Dawley (SD) rat liver microsomes (Corning), as described in the Experimental Section.

T1 sequence (P27487 whole entry): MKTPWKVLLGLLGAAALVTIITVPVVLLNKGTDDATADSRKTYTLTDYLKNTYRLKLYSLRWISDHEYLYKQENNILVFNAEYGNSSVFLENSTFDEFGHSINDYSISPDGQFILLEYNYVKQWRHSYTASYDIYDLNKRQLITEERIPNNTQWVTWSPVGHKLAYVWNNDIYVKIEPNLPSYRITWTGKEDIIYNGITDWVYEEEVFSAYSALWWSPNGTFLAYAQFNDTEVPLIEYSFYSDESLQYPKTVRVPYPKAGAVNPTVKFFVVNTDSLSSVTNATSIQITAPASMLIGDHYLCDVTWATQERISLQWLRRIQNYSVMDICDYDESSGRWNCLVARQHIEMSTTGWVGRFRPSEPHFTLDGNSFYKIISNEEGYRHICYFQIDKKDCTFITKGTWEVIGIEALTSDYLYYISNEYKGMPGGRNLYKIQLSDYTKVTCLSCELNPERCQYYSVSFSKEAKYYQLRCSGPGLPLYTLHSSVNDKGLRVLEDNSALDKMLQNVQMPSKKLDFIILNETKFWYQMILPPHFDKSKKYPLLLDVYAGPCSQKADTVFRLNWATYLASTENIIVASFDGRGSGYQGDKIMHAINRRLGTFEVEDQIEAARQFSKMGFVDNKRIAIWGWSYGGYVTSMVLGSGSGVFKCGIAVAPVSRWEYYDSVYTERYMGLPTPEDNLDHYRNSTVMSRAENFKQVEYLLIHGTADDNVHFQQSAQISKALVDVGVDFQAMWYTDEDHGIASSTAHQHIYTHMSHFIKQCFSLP
T3 sequence (P27487 whole entry): as above

## NC(CCOc1ccc(S(N)(=O)=O)cc1)C1COc2ccccc2O1 (centres unmarked) [Compound 12, 4-(3-Amino-3-(1,4-benzodioxan)propoxy)benzenesulfonamide]
[1]
  solubility: 224 µM (≈ 81.6 µg/mL)
hCA IX
  Ki: 0.133 µM
[2]
  inhibition of cellular DPP IV activity vs untreated cells: 60.65 ± 4.92% and 71.86 ± 4.27%
Human cloned α1a-AR
  nH α1a-AR (slope factor): 0.97 ± 0.27
Human cloned α1a-AR; mean ± S.E.M.
  pKi α1a-AR: 6.61
Caco-2 cells [3]
  cell viability (MTT reduction): maintain their metabolic activity
HepG2 cells
  cell viability (MTT reduction): maintain their metabolic activity
Caco-2 cells [4]; 15 min
  intracellular fluorescence RFU 313/595 nm (uptake): 2874 ± 383.1 RFU
Caco-2 cells [4]; 30 min
  intracellular fluorescence RFU 313/595 nm (uptake): 4562 ± 993.2 RFU
Caco-2 cells [4]; 60 min
  intracellular fluorescence RFU 313/595 nm (uptake): 6250 ± 1163 RFU
[5]
  IC50: 0.049 ± 0.0045 µM
[6]; human liver microsomes
  compound remaining: 72.6%
[6]; mouse liver microsomes
  compound remaining: 27.5%
[6]; rat liver microsomes
  compound remaining: 16.7%
